Assay results taken from patent publication US20160367556A1, “Therapeutic Agent for Ocular Disease or Prophylactic Agent for Ocular Disease” (Japan Tobacco Inc., priority 2013, published 2016).
Values joined by “and” are separate entries in the source; they are usually repeats but may differ in a detail not shown here. Equal values may be shown once. Read-outs that look alike come from different tables or passages of the source.

What was measured:
[1] = system: VEGF-induced retinal vascular permeability; assay: Retinal vascular permeability suppression by oral administration in rat model where VEGF-induced retinal vascular permeability was increased; assay type: in vivo; details: oral 10, 30 or 100 mg/kg; vitreous protein 24 hours after intravitreal rat VEGF164 400 ng/eye; FIG. 1
Experimental: Experiment 1. Retinal vascular permeability suppression by oral administration of Compound A in rat model where VEGF-induced retinal vascular permeability was increased A rat model where VEGF-induced retinal vascular permeability was increased was used to evaluate the ability of suppressing an increase of the retinal vascular permeability by Compound A. The animal model was prepared with appropriate modifications based on Non-Patent Literature 3, etc. As experimental animals, male Brown Norway rats aged 8 weeks {CHARLES RIVER LABORATORIES JAPAN, INC.} were used. Inside the vitreous body of each eye of rats, rat VEGF164 {400 ng/eye, R&D Systems, Inc.} was injected <VEGF-administered group>. Inside the vitreous body of each eye of rats in a normal control group, D-PBS (-) {Sigma-Aldrich Corporation} was intravitreally injected. Each group included four rats <eight eyeballs>. […] The protein concentration in the sampled vitreous body was determined by the Bradford method. The rate of suppressing an increase of the retinal vascular permeability was calculated according to the following equation X. Rate of suppressing increase of retinal vascular permeability (%)=(PB-PX)/(PB-PA)×100 [Equation X] […]

[2] = system: VEGF-induced retinal vascular permeability; assay: Retinal vascular permeability suppression by intravitreal injection in rat model where VEGF-induced retinal vascular permeability was increased; assay type: in vivo; details: intravitreal 10, 30 or 100 μg/eye mixed with rat VEGF164 400 ng/eye; vitreous protein at 24 hours; FIG. 2
Experimental: Experiment 2. Retinal vascular permeability suppression by intravitreal injection of Compound A in rat model where VEGF-induced retinal vascular permeability was increased As experimental animals, male Brown Norway rats aged 8 weeks {CHARLES RIVER LABORATORIES JAPAN, INC.} were used. A mixture of rat VEGF164 {400 ng/eye, R&D Systems, Inc.} and Compound A (10 μg/eye, 30 μg/eye or 100 μg/eye) dissolved or suspended in a base was injected into the vitreous body of each eye of rats <Compound A-administered group>. In the vitreous body of each eye of rats of a base-administered group, a mixture of rat VEGF164 and the base of the same volume as that of the Compound A-administered group was injected. As the base, an aqueous base was used. In the vitreous body of each eye of rats of a normal control group, D-PBS (-) {Sigma-Aldrich Corporation} was injected. Each group included four rats <eight eyeballs>. At 24 hours after intravitreal injection of VEGF, rats were euthanized, and the eyeballs of the rats were enucleated while avoiding contamination with blood. […] The protein concentration in the sampled vitreous body was determined by the Bradford method. The rate of suppressing an increase of the retinal vascular permeability was calculated according to the following equation X. Rate of suppressing increase of retinal vascular permeability (%)=(PB-PX)/(PB-PA)×100 [Equation X] […]

[3] = Plasma concentration after single oral administration to rats (LC-MS); assay type: in vivo; details: rat, oral 100 mg/kg single; for concentration at 0.5 h / concentration at 1 h / concentration at 2 h / concentration at 4 h / concentration at 6 h / concentration at 24 h: male, Crl:CD <SD>, plasma, po, 100 mg/kg
Experimental: (§1) Experiment 3. Ocular tissue distribution and systematic exposure of Compound A orally administered or intravitreally injected
(§2) As experimental animals, male Crl:CD <SD> rats aged 8 weeks {CHARLES RIVER LABORATORIES JAPAN, INC.} were used.
(§3) Compound A suspended in a 1% (w/v) methylcellulose aqueous solution was orally administered to rats at 100 mg/kg. At 0.5, 1, 2, 4, 6 and 24 hours after oral administration, plasma and neural retina were sampled, and the concentrations of Compound A in the plasma and in the neural retina were quantified by liquid chromatography mass spectrometry <LC-MS>.
(§4) Transition of plasma concentration of Compound A orally administered (100 mg/kg) was shown in Table 1, transition of neural retina concentration of Compound A orally administered (100 mg/kg) was shown in Table 2, and transition of neural retina concentration of Compound A intravitreally injected (10 μg/eye) was shown in Table 3.

[4] = Neural retina concentration after single oral administration to rats (LC-MS); assay type: in vivo, rat
Experimental: as §1, §2, §3, §4

With `C[C@H]1CN(C(=O)CC#N)[C@]12CCN(c1ncnc3[nH]ccc13)C2` [Compound A, 3-[(3S,4R)-3-Methyl-6-(7H-pyrrolo[2,3-d]pyrimidin-4-yl)-1,6-diazaspiro[3.4]octan-1-yl]-3-oxopropanenitrile] the “suppression of retinal vascular permeability” value [1] was “suppression of retinal vascular permeability”, the “suppression of retinal vascular permeability” value [2] was “suppression of retinal vascular permeability” and the concentration at 0.5 h ([3]; 0.5 hr, average, read-out: Plasma concentration of Compound A, Average) was 6320 ng/mL. For the same compound, the concentration at 0.5 h ([3]; 0.5 hr, individual animal, read-out: Plasma concentration of Compound A) was 5810 ng/mL, the concentration at 1 h ([3]; 1 hr, average, read-out: Plasma concentration of Compound A, Average) was 8260 ng/mL and the concentration at 1 h ([3]; 1 hr, individual animal, read-out: Plasma concentration of Compound A) was 7950 ng/mL. For the same compound, the concentration at 2 h ([3]; 2 hr, average, read-out: Plasma concentration of Compound A, Average) was 6350 ng/mL, the concentration at 2 h ([3]; 2 hr, individual animal, read-out: Plasma concentration of Compound A) was 6520 ng/mL and the concentration at 4 h ([3]; 4 hr, average, read-out: Plasma concentration of Compound A, Average) was 4140 ng/mL. It also gave a concentration at 4 h ([3]; 4 hr, individual animal, read-out: Plasma concentration of Compound A) of 4860 ng/mL, a concentration at 6 h ([3]; 6 hr, average, read-out: Plasma concentration of Compound A, Average) of 4050 ng/mL and a concentration at 6 h ([3]; 6 hr, individual animal, read-out: Plasma concentration of Compound A) of 3040 ng/mL. For the same compound, the concentration at 24 h ([3]; 24 hr, average, read-out: Plasma concentration of Compound A, Average) was 20 ng/mL, the concentration at 24 h ([3]; 24 hr, individual animal, read-out: Plasma concentration of Compound A) was 30 ng/mL and the “Plasma concentration of Compound A” value ([3]; 0.5 hr, individual animal) was 6830 ng/mL. For the same compound, the “Plasma concentration of Compound A” value ([3]; 1 hr, individual animal) was 8570 ng/mL, the “Plasma concentration of Compound A” value ([3]; 2 hr, individual animal) was 6180 ng/mL and the “Plasma concentration of Compound A” value ([3]; 4 hr, individual animal) was 3410 ng/mL. For the same compound, the “Plasma concentration of Compound A” value ([3]; 6 hr, individual animal) was 5060 ng/mL, the “Plasma concentration of Compound A” value ([3]; 24 hr, individual animal) was 20 ng/mL and the “passage through the blood-retina barrier” value [4] was “passes through the blood-retina barrier”. For the same compound, the concentration at 0.5 h ([4]; male, Crl:CD <SD>, rat, neural retina, po, 100 mg/kg, rat, oral 100 mg/kg single, 0.5 hr, average, read-out: Neural retina concentration of Compound A, Average) was 3740 ng/mL, the concentration at 0.5 h ([4]; male, Crl:CD <SD>, rat, neural retina, po, 100 mg/kg, rat, oral 100 mg/kg single, 0.5 hr, individual eye, read-out: Neural retina concentration of Compound A) was 2960 ng/mL and the concentration at 1 h ([4]; male, Crl:CD <SD>, rat, neural retina, po, 100 mg/kg, rat, oral 100 mg/kg single, 1 hr, average, read-out: Neural retina concentration of Compound A, Average) was 3860 ng/mL. It also gave a concentration at 1 h ([4]; male, Crl:CD <SD>, rat, neural retina, po, 100 mg/kg, rat, oral 100 mg/kg single, 1 hr, individual eye, read-out: Neural retina concentration of Compound A) of 3930 ng/mL, a concentration at 2 h ([4]; male, Crl:CD <SD>, rat, neural retina, po, 100 mg/kg, rat, oral 100 mg/kg single, 2 hr, average, read-out: Neural retina concentration of Compound A, Average) of 2720 ng/mL and a concentration at 2 h ([4]; male, Crl:CD <SD>, rat, neural retina, po, 100 mg/kg, rat, oral 100 mg/kg single, 2 hr, individual eye, read-out: Neural retina concentration of Compound A) of 2660 ng/mL. The concentration at 4 h ([4]; male, Crl:CD <SD>, rat, neural retina, po, 100 mg/kg, rat, oral 100 mg/kg single, 4 hr, average, read-out: Neural retina concentration of Compound A, Average) was 2390 ng/mL, the concentration at 4 h ([4]; male, Crl:CD <SD>, rat, neural retina, po, 100 mg/kg, rat, oral 100 mg/kg single, 4 hr, individual eye, read-out: Neural retina concentration of Compound A) was 2300 ng/mL and the concentration at 6 h ([4]; male, Crl:CD <SD>, rat, neural retina, po, 100 mg/kg, rat, oral 100 mg/kg single, 6 hr, average, read-out: Neural retina concentration of Compound A, Average) was 1920 ng/mL. The “Neural retina concentration of Compound A” value (from here on “Neural retina concentration”) ([4]; rat, oral 100 mg/kg single, 0.5 hr, individual eye, 100 mg/kg) was 4.42 µg/mL and 4.89 µg/mL and 2.70 µg/mL, the “Neural retina concentration” value ([4]; rat, oral 100 mg/kg single, 1 hr, individual eye, 100 mg/kg) was 4.48 µg/mL and 3.24 µg/mL and 3.80 µg/mL and the “Neural retina concentration” value ([4]; rat, oral 100 mg/kg single, 2 hr, individual eye, 100 mg/kg) was 2.12 µg/mL and 3.38 µg/mL. The “Neural retina concentration” value ([4]; rat, oral 100 mg/kg single, 4 hr, individual eye, 100 mg/kg) was 2.54 µg/mL and 2.29 µg/mL and 2.43 µg/mL, the “Neural retina concentration” value ([4]; rat, oral 100 mg/kg single, 6 hr, individual eye, 100 mg/kg) was 2.90 µg/mL and 2.24 µg/mL and 1.05 µg/mL and 1.47 µg/mL and the “Neural retina concentration” value ([4]; rat, oral 100 mg/kg single, 24 hr, individual eye) was “BLQ (Below the lower limit of quantification (ca. 0.16 μg/g))”.
